Assay [1] relates to pro-MMP1. Description: Pro-MMP1 release from NHDFs fibroblasts (ELISA). In kind it is cell-based, Human. Conditions: NHDFs treated 72 h; B 0.0079%, E 0.029%, A 0.03%; TGF-β1 20 ng/ml; TNFα 20 ng/mL + IL1β 2.5 ng/ml; vs untreated control; FIG. 3. Here is the method: The Normal Human foreskin-derived Dermal Fibroblasts (NHDFs; ATCC, CRL-2522) cells were grown in Dulbecco's Modified Eagle Medium (DMEM, Gibco/Life Technologies, 31885) supplemented with 10% of Foetal Bovine Serum (FBS, Gibco/Life Technologies, 10270). The cells were maintained in a humidified incubator at 37° C. with a 5% CO2 atmosphere.
NHDF fibroblasts were cultivated on 24-well plates in complete culture medium (containing 10% FBS) 24 h before the treatment with the compounds. Cells were then treated for 72 h with the test compounds in culture medium, in absence of FBS. In parallel, reference treatments were applied according to the same method (TGF-β at 20 ng/ml; combination of TNFα at 20 ng/ml and IL1β at 2.5 ng/ml). All the treatments were performed in triplicate of culture (n=3).
At the end of the 72 h of treatments, all the supernatants were collected, aliquoted and stored at −20° C. until further use in specific ELISA assays. Through these assays, the quantifications of the extracellular releases of pro-MMP1 (R&D systems, DMP100) produced by NHDFs fibroblasts were assessed according to the supplier's specifications.

Assay [2] has as its system NHEK keratinocytes. Description: ROS production in NHEK keratinocytes subjected to UVA (H2DCFDA probe). The assay is classed as cell-based, Human. As to conditions: UVA 5 J/cm^2, extract at 0.29%, active at 0.3%, ascorbic acid at 300 μg/mL, 24 h pre-treatment, FIG. 2. The method, then:
The Normal Human foreskin-derived Epidermal Keratinocytes isolated from 3 Caucasian donors (NHEKs, Lonza, 00192906) were grown in Epilife medium (Fisher Scientific, M-EPI-500-A) supplemented with Human Keratinocyte Growth Supplement (HKGS, Fisher Scientific, S-001-5). The cells were maintained in a humidified incubator at 37° C. with a 5% CO2 atmosphere. The detection and quantification of the intracellular ROS amounts from 2D NHEK keratinocytes or 3D RHE were performed using the H2DCFDA (2′-7′dichlorodihydrofluorescein diacetate; Fisher Scientific; D399) probe. After its diffusion into the live cells, the probe is deacetylated by intracellular esterases to a non-fluorescent compound. This compound can be oxidized by ROS and converted into the highly fluorescent DCF (2′-7′ dichlorofluorescein). The production of ROS by cells can be therefore measured through the level of fluorescence emitted by the oxidized dye. NHEK keratinocytes in 24-well plates were pre-treated in the culture medium during 24 h by the compounds at 1 concentration or with the antioxidant reference, ascorbic acid at 300 μg/mL. […] Following the challenge, the fluorescence was measured (excitation: 475 nm; emission: 500-550 nm) with a fluorescence microplate reader (Glomax Explorer, Promega). […]

Data on two molecules can be found in patent US20260191764A1, “COMBINATION OF A LACTOBACILLUS STRAIN AND A GRAPE EXTRACT FOR USE AS AN ANTI-AGEING AGENT” (CEPAGES, priority 2022, published 2026).

For the molecule “TGF-β1: negative reference at 20 ng/ml in the pro-MMP1 assay”, the “pro-MMP1 release in supernatant” value in assay [1] is on record as “reduced”.

For `O=C1O[C@H]([C@@H](O)CO)C(O)=C1O` [ascorbic acid], the ROS production entry in assay [2] is given as “partially suppressed this effect”.
